Experimental data published in US20080071116A1, “Modulators of Lysophosphatidic Acid (Lpa) Signaling and the Use Thereof” (THE BOARD OF REGENTS OF THE UNIVERSITY OF TEXAS SYSTEM, priority 2004, published 2008).
“Also recorded” adds a separate entry of the source.

Assays:
PC-3 cells [1] = test: calcium mobilization assay in androgen insensitive prostate cancer PC-3 cells; type: cell-based, human
Protocol: (§1) The procedures for these calcium mobilization assays are as followed: OVCAR3 cells and PC-3 cells were cultured in RPMI 1640 medium with 10% FBS (fetal bovine serum). HT29 cells were cultured in DMEM (high glucose) medium with 10% FBS. All cells were cultured at about 37° C. in a humidified atmosphere with 5% CO2. After starvation in serum-free medium for about 12-24 hours, cells were harvested and loaded with about 1 μM of Indo-1 AM in serum-free medium for about 45 min at 37° C. Cells were washed in PBS and resuspended at 2×10^6 cells/ml in a [Ca^2+]i assay buffer (Sodium chloride, NaCl, about 140 mM, potassium chloride, KCl, about 2 mM, magnesium chloride, MgCl2, about 1 mM, calcium chloride, CaCl2, about 2 mM, in about 25 mM HEPES buffer at pH 7.4 with about 10 mM of glucose). Cytoplasmic [Ca^2+]i was determined at an excitation wavelength of about 331 nm and an emission wavelength of 410 nm using a fluorescence spectrophotometer (Hitachi, F-4000). Approximately 3×10^6 cells were used for [Ca^2+]l determination in a stirred quartz cuvette kept at about 37° C. OMPT or 18:1 LPA was dissolved in about 0.1% BSA/PBS solution and applied immediately to the cells. To test other LPA derivatives of the invention, cells were exposed to the derivatives for about 3 minutes or for a period of various times in time course related experiments before a LPA agonist, such as 18:1 LPA, OMPT, or other LPAs was applied into the cuvette.
(§2) The concentration of calcium mobilization giving the half-maximal response (EC50) was obtained from the concentration-response curve fitted to a sigmoidal logistic equation, with the maximal calcium response set to 100% using the GraphPad Prism. Maximal response value is expressed as mean +/−s.e.m. EC50 value is expressed with 95% confidence.

LPA1 receptor [2] = target: T1, LPA1 receptor (Homo sapiens, UniProt Q92633); test: calcium mobilization in Sf9 insect cells expressing LPA1; type: cell-based; details: Sf9 cells expressing LPA1
T1 sequence (Q92633 whole entry): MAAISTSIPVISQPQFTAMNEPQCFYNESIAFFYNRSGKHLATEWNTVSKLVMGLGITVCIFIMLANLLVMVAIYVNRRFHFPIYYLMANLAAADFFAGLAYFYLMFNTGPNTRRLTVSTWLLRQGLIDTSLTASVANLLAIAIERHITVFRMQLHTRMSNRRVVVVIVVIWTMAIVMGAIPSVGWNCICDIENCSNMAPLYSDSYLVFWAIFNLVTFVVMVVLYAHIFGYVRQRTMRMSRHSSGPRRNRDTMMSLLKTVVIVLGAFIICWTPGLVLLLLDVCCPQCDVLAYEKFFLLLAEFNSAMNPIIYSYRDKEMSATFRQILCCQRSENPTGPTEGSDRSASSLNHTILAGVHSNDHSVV

ERK1/2 = ERK1/2 (p42/p44-MAPK) phosphorylation immunoblot in prostate cancer cells; type: cell-based, human
Protocol: (§3) The cells were then lysed in SDA sample buffer or ice-cold X-100 lysis buffer (1% Triton X-100, 50 mM HEPES [pH7.4], 150 mM NaCl, 1.5 mM MgCl2, 1 mM EGTA, 10% glycerol, 100 mM NaF, 10 mM Na pyrophosphate, and 1 mM aprotinin). Total cellular protein was resolved by SDS/PAGE, transferred to immobilon [poly (vinylidene difluoride)], and immunoblotted with antibodies following the protocols provided by manufactures. Immunocomplexes were visualized with an enhanced chemiluminescence detection kit (Amersham Pharmacia) using horseradish peroxidase-conjugated secondary antibodies (Bio-Rad).

AKT = AKT phosphorylation immunoblot in prostate cancer cells; type: cell-based, human; details: PC-3 and DU145 cells
Protocol: as §3

p38-MAPK = p38-MAPK activation, phosphospecific antibodies; type: cell-based, human; details: PC-3 and DU145 cells
Protocol: as §3

[3] = system: vasodilator-stimulated protein (VASP); test: VASP phosphorylation in PC-3 cells; type: cell-based, human
Protocol: as §3
To determine the mechanisms regulating LPA-induced cell migration, actin filament binding proteins that link receptor signaling to lamellipodia formation were evaluated.

PKA = PKA activation in PC-3 cells; type: cell-based, human
PC-3 cells [4] = test: cellular proliferation and growth factor withdrawal-induced apoptosis; type: cell-based, human
PC-3 cells [5] = test: membrane ruffling and cell migration in PC-3 cells; type: cell-based, human
HT29 cells [6] = test: lamellipodia formation in colon cancer HT29 cells; type: cell-based; details: HT29, FIG. 26
LPA3 receptor [7] = target: T2, LPA3 receptor (Homo sapiens, UniProt Q9UBY5); test: calcium mobilization in Sf9 insect cells expressing LPA3; type: cell-based; set-up: expressed in transfected cells; host or cells: Sf9 insect cells
T2 sequence (Q9UBY5 1-353): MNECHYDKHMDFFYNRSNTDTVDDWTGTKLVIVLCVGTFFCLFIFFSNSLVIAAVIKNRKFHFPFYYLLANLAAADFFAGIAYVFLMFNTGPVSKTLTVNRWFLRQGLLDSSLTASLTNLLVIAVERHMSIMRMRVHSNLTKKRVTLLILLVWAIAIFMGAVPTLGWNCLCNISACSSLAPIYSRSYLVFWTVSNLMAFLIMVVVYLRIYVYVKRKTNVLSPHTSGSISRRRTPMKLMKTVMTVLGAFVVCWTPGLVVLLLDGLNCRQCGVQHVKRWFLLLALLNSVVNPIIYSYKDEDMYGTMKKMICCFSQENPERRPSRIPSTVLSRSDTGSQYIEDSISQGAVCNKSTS

LPA2 receptor [8] = target: T3, LPA2 receptor (Homo sapiens, UniProt Q9HBW0); test: calcium mobilization in Sf9 insect cells expressing LPA2; type: cell-based; set-up: expressed in transfected cells; host or cells: Sf9 insect cells; details: Sf9 cells expressing LPA2; read-out: EC50 of increase in intracellular calcium concentration
T3 sequence (Q9HBW0 whole entry): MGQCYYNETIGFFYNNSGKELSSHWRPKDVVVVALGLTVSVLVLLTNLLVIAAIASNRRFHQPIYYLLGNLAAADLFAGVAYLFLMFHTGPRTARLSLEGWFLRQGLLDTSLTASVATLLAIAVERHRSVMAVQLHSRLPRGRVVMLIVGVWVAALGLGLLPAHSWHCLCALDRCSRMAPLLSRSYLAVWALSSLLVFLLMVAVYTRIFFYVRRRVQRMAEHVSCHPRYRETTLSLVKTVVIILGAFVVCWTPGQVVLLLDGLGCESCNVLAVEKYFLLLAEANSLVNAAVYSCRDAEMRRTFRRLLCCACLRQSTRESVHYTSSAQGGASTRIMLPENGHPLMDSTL

HT29 cells [9] = test: calcium mobilization assay in colon cancer HT29 cells; type: cell-based
Protocol: as §1, §2

DU145 cells [10] = test: calcium mobilization assay in androgen insensitive prostate cancer DU145 cells; type: cell-based, human
PC-3 cells [11] = test: lamellipodia formation in PC-3 cells; type: cell-based, human; details: 30 μM; for effect on spontaneously activated lamellipodia: PC-3, serum-free, FIGS. 38-40; for inhibition of 18:1 LPA-induced lamellipodia formation: PC-3, FIGS. 42-44
PC-3 cells [12] = test: cell growth (cell viability) in PC-3 cells; type: cell-based, human; details: for inhibition of cell growth (cell viability): PC-3
DU145 cells [13] = test: cell growth (cell viability) in DU145 cells; type: cell-based, human
LNCaP cells = test: calcium mobilization in androgen sensitive prostate cancer LNCaP cells; type: cell-based
interleukin-8 (IL-8) = test: IL-8 transcription and secretion; type: cell-based, human; details: PC-3 cells
LPA2 receptor [14] = target: T3, LPA2 receptor; test: HA-Erk1 phosphorylation in HEK 293 T cells transfected with LPA2; type: cell-based; set-up: expressed in transfected cells; details: LPA2 transfected HEK 293 T; 0.01, 0.1, or 1 μM
Excerpt: (§4) We have also tested kinase activation by the LPA3 receptor subtype using OMPT as a tool. We determined whether activation of the LPA3 receptor by OMPT can be linked to ERK activation (related to MAP kinase signaling pathway) in mammalian cells, HEK 293 T cells, by co-transfecting hemagglutinin (HA)-tagged Erk1 (HA-Erk1) with either a control vector or an expression vector having LPA1, LPA2, or LPA3. […] There is no phosphorylation of HA-Erk1 at lower concentration of LPA or OMPT in the absence of LPA receptors. […] Thus, the data confirmed that OMPT, an LPA derivative, is a selective agonist for LPA3 receptor subtype, capable of inducing MAPK activation.

LPA3 receptor [15] = target: T2, LPA3 receptor; test: HA-Erk1 phosphorylation in HEK 293 T cells transfected with LPA3; type: cell-based; set-up: expressed in transfected cells; details: LPA3 transfected HEK 293 T; 0.01, 0.1, or 1 μM
Excerpt: as §4

LPA1 receptor [16] = target: T1, LPA1 receptor; test: HA-Erk1 phosphorylation in HEK 293 T cells transfected with LPA1; type: cell-based; set-up: FLAG; expressed in transfected cells; host or cells: HEK 293 T cells; details: LPA1 transfected HEK 293 T; 0.01, 0.1, or 1 μM
Excerpt: as §4

OVCAR3 cells = test: calcium mobilization assay in ovarian cancer OVCAR3 cells; type: cell-based, human; details: OVCAR3
Protocol: as §1, §2

DU145 cells [17] = test: cell migration of DU145 cells; type: cell-based, human
Jurkat T cells = details: human Jurkat T cells; Xu et al. 1995; cited from earlier work
[18] = in the presence of 10 μM of 18:1 LPA, FIGS. 45-47

Which results are given for `CCCCCCCCCCCCCC(=O)OC[C@@H](O)COP(=O)(O)O` [14:0 LPA, reference compound]?
EC50 (PC-3 cells [1]): ~98 nM; elevation of intracellular calcium (LPA1 receptor [2]): no elevated intracellular calcium concentration is observed; activation of p42/p44-MAPK (ERK1/2; PC-3 and DU145 cells): efficiently activates p42/p44-MAPK; activation of AKT (AKT): only marginal effects; activation of p38-MAPK (p38-MAPK): only marginal effects; induction of VASP phosphorylation at Ser157 PKA site [3]: induced phosphorylation; activation of PKA (PKA): efficiently activate PKA; cellular proliferation and prevention of growth factor withdrawal-induced apoptosis (PC-3 cells [4]): does not increase cellular proliferation; stimulation of membrane ruffling and cell migration (PC-3 cells [5]): stimulate membrane ruffling and cell migration; activation of lamellipodia (HT29 cells [6]): strong activator of lamellipodia; calcium mobilization (LPA3 receptor [7]): no elevated intracellular calcium concentration is observed; EC50 (LPA2 receptor [8]): 0.1 nM

Which “induction of VASP phosphorylation at Ser157 PKA site” value [3] does the source give for EGF: epidermal growth factor here?
Its value is “Neither OMPT nor EGF increased phosphorylation of VASP”.

Which results are given for `CCCCCCCC/C=C\CCCCCCCC(=O)OC[C@@H](O)COP(=O)(O)OCC(O)CO` (mixture of isomers) [18:1 LPG, 1-oleoyl-2-hydroxy-sn-glycero-3-[phospho-rac-(1-glycerol)]]?
inhibition of (18:1) LPA-induced calcium mobilization (HT29 cells [9]; HT29 cells (only express LPA2), FIGS. 21-22): effective inhibitors/antagonists; inhibition of OMPT-induced calcium mobilization (PC-3 cells [1]; FIGS. 19-20): effective inhibitor/antagonist; antagonism of 18:1 LPA-induced calcium mobilization (DU145 cells [10]; 10 and 30 μM in FIGS. 15-18): completely antagonized; antagonism of 18:1 LPA-induced calcium mobilization (DU145 cells [10]; 10 and 30 μM in FIGS. 15-18, listed as 18:1-acyl-LPG): shifted to the right; effect on spontaneously activated lamellipodia (PC-3 cells [11]): inhibit spontaneously activated lamellipodia; inhibition of 18:1 LPA-induced lamellipodia formation (PC-3 cells [11]): inhibition of 18:1 LPA-induced LPA2 receptor mediated lamellipodia formation; inhibition of cell growth (cell viability) (PC-3 cells [12]; [18]): inhibition of cell growth (cell viability) at high concentrations; inhibition of cell growth (cell viability) (PC-3 cells [12]; without LPA, FIGS. 46-47): inhibition of cell growth (cell viability) at high concentrations; reduction of cell viability / cell growth (PC-3 cells [12]; PC-3 cells): reduced cell viability; reduction of cell viability / cell growth (DU145 cells [13]): reduced cell viability

Which “inhibition of membrane ruffling and cell migration induced by 18:1 LPA and 14:0 LPA” value (PC-3 cells [5]) does the source give for `O=S(=O)(NCCNC/C=C/c1ccc(Br)cc1)c1cccc2cnccc12` [H-89] here?
Its value is “completely inhibited membrane ruffling and cell migration”.

With “lysophosphatidic acid [LPA, reference compound]” as the compound, how does the calcium mobilization (LNCaP cells) read?
The calcium mobilization was “does not induce the increase of intracellular calcium concentration”.

And the “IL-8 transcription and secretion” value (interleukin-8 (IL-8))?
Its value is “increases interleukin-8 (IL-8) transcription and stimulates IL-8 secretion”.

And the HA-Erk1 phosphorylation (LPA2 receptor [14])?
Its HA-Erk1 phosphorylation is “stimulates phosphorylation of HA-Erk1 in a dose-dependent manner”.

What about the HA-Erk1 phosphorylation (LPA3 receptor [15]) of the same compound?
Its HA-Erk1 phosphorylation is “stimulates phosphorylation of HA-Erk1 in a dose-dependent manner”.

And the HA-Erk1 phosphorylation (LPA1 receptor [16])?
The HA-Erk1 phosphorylation was “stimulates phosphorylation of HA-Erk1 in a dose-dependent manner”.

For “D-3-deoxy-phosphophatidyl-myo-inositol ether lipid [DPIEL]”, which “inhibition of (18:1) LPA-induced calcium mobilization” value (HT29 cells [9]; HT29 cells (express only LPA2), FIG. 6) is on record?
The value was “does not inhibit calcium mobilization”.

And the “maximum calcium response to OMPT” value (OVCAR3 cells; DPIEL about 10 μM exposed group (control about 123.5+/−16.4 nM))?
Its value is “about 136.1+/−16.6 nM”.

What about the “suppression of the maximum response to OMPT” value (OVCAR3 cells; about 20 μM DPIEL) of the same compound?
Its value is “about 36%”.

And the “suppression of maximum calcium mobilization induced by 18:1 LPA” value (PC-3 cells [1]; FIG. 7)?
Its value is “about 56%”.

What about the “inhibition of EGF-induced phosphorylation of ERK1/2” value (ERK1/2; LNCaP cells, FIG. 8B) of the same compound?
Its value is “fails to reduce EGF-induced phosphorylation of ERK1/2”.

And the “inhibition of ERK1/2 phosphorylation activated by 18:1 LPA and 14:0 LPA” value (ERK1/2; PC-3 cells, DPIEL about 30 minutes, FIG. 8A)?
The value was “inhibits phosphorylation of the extracellular signal-regulating kinase (ERK1/2)”.

And the “inhibition of VASP phosphorylation” value [3]?
The value was “inhibits phosphorylation of vasodilator stimulated protein (VASP)”.

What about the “inhibition of LPA-induced cell migration” value (PC-3 cells [5]) of the same compound?
The value was “inhibits”.

And the “inhibition of LPA-induced cell migration” value (DU145 cells [17])?
The value was “inhibits”.

With `CCCCCCCCCCCCCC(=O)OC[C@@H](O)COP(=O)(O)OCC(O)CO` (mixture of isomers) [14:0 LPG, 1-myristoyl-2-hydroxy-sn-glycero-3-[phospho-rac-(1-glycerol)]] as the compound, how does the “inhibition of 14:0 LPA-induced calcium mobilization” value (DU145 cells [10]) read?
Its value is “inhibited calcium mobilization; also recorded: effective inhibitor/antagonist”.

And the “effect on spontaneously activated lamellipodia” value (PC-3 cells [11])?
The value was “negligible effect”.

What about the “inhibition of 18:1 LPA-induced lamellipodia formation” value (PC-3 cells [11]) of the same compound?
Its value is “no inhibition”.

And the “inhibition of cell growth (cell viability)” value (PC-3 cells [12]; [18])?
The value was “inhibition of cell growth (cell viability) at high concentrations”.

With lysophosphatidyl glycerol [LPG] as the compound, how does the “inhibition of LPA signaling” value (Jurkat T cells) read?
The value was “inhibitor of LPA signaling”.
